# Measured values taken from ChEMBL document CHEMBL5726255, “Biaryl acyl-sulfonamide compounds as sodium channel inhibitors” (2017).
# Biological target: Sodium channel protein type 9 subunit alpha (Homo sapiens, UniProt Q15858)
# Assay: Nav 1.7 In Vitro Patch Express (PX) Assay: HEK 293 cells stably transfected with human Nav1.7 were recorded in whole cell voltage clamp mode with the PatchXpress automated electrophysiology system (Molecular Devices, LLC, Sunnyvale, Calif.). Compound effects were measured on a partially inactivated state of the sodium channel. Cells were clamped to a holding potential yielding 20 to 50% inactivation. To elicit sodium current, channels were activated by pulsing to −10 mV for 20 msec. This voltage protocol was repeated at a rate of 0.1 Hz throughout the experiment. A single concentration of test compound was applied to cells for a duration of 3 minutes. Peak sodium current was measured at the end of the compound addition period to determine percent inhibition. Three to five cells were tested per concentration, and IC50 curves were fitted to percent inhibition as a function of concentration.
# Sequence of Sodium channel protein type 9 subunit alpha (Q15858 whole entry): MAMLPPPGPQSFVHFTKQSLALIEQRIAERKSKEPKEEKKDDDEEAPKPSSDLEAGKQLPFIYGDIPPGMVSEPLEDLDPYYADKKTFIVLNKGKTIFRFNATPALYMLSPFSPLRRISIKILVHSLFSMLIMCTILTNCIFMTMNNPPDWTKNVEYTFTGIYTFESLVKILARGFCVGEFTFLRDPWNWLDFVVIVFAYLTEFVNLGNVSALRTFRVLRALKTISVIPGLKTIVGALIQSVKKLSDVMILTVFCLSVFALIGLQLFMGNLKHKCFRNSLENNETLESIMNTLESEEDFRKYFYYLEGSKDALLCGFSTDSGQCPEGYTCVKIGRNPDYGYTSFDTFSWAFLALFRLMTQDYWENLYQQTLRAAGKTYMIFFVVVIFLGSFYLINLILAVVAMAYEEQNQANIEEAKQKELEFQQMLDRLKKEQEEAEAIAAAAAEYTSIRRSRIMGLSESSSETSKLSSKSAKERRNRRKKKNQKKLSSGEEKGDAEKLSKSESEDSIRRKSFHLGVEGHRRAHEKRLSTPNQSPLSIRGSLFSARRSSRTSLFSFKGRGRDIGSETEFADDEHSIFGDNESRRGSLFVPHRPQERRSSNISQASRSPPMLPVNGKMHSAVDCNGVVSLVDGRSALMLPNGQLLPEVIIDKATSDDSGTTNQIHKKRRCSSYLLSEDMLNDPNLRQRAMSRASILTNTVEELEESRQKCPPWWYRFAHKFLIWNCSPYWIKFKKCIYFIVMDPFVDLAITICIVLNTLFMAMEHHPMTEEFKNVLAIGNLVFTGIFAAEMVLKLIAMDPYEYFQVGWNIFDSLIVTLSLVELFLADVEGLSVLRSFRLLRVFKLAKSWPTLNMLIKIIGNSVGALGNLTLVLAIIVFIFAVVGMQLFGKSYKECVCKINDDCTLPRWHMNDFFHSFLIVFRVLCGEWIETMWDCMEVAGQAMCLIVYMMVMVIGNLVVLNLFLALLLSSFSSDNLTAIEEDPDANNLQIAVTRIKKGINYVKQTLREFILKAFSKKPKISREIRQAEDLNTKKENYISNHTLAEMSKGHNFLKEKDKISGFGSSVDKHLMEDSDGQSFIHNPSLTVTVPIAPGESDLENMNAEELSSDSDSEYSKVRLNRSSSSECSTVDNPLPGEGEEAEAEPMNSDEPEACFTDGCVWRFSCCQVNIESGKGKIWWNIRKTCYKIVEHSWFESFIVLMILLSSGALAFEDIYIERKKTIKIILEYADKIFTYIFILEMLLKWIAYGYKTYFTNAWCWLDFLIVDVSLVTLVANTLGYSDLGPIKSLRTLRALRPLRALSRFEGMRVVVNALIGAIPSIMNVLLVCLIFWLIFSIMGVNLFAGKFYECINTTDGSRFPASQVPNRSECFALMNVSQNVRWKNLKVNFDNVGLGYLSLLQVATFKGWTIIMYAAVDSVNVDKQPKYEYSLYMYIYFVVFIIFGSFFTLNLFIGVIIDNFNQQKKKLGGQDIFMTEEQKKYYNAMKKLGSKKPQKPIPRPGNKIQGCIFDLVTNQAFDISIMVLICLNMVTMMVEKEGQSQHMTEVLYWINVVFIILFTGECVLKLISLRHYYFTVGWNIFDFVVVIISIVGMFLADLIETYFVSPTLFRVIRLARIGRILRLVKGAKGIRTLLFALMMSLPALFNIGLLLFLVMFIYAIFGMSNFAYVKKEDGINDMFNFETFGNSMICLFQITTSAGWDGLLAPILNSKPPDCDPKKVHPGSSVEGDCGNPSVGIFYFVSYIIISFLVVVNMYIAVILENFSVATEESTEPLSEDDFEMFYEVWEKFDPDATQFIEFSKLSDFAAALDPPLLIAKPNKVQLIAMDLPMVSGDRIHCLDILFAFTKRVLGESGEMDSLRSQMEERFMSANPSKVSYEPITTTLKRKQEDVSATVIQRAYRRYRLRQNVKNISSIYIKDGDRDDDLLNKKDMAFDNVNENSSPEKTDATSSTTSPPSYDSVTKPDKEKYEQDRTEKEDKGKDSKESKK
row,Structure (SMILES),IC50 [nM]
1,Cc1cc(C(=O)NS(=O)(=O)C2CCC2)c(F)cc1-c1cnc(OC2CCC2)c(Cl)c1,73.9
2,COc1cc(C(=O)NS(C)(=O)=O)ccc1-c1cnc(Oc2c(Cl)ccc(Cl)c2C)c(C#N)c1,17.2

# Continued, values first:
row,IC50 [nM],Structure (SMILES)
1,96.5,CS(=O)(=O)NC(=O)c1cc(F)c(-c2cnc(Oc3ccc(F)c4c3CCC4)c(Cl)c2)cc1F
2,559,CC(C)COc1ncc(-c2cc(F)c(C(=O)NS(C)(=O)=O)cc2F)cc1Br
3,46.2,Cc1cc(C(=O)NS(C)(=O)=O)c(F)cc1-c1cnc(O[C@H](C)c2cc(Cl)ccc2Cl)c(Cl)c1

# Biological target: Sodium channel protein type 5 subunit alpha (Homo sapiens, UniProt Q14524)
# Sequence (Q14524 whole entry): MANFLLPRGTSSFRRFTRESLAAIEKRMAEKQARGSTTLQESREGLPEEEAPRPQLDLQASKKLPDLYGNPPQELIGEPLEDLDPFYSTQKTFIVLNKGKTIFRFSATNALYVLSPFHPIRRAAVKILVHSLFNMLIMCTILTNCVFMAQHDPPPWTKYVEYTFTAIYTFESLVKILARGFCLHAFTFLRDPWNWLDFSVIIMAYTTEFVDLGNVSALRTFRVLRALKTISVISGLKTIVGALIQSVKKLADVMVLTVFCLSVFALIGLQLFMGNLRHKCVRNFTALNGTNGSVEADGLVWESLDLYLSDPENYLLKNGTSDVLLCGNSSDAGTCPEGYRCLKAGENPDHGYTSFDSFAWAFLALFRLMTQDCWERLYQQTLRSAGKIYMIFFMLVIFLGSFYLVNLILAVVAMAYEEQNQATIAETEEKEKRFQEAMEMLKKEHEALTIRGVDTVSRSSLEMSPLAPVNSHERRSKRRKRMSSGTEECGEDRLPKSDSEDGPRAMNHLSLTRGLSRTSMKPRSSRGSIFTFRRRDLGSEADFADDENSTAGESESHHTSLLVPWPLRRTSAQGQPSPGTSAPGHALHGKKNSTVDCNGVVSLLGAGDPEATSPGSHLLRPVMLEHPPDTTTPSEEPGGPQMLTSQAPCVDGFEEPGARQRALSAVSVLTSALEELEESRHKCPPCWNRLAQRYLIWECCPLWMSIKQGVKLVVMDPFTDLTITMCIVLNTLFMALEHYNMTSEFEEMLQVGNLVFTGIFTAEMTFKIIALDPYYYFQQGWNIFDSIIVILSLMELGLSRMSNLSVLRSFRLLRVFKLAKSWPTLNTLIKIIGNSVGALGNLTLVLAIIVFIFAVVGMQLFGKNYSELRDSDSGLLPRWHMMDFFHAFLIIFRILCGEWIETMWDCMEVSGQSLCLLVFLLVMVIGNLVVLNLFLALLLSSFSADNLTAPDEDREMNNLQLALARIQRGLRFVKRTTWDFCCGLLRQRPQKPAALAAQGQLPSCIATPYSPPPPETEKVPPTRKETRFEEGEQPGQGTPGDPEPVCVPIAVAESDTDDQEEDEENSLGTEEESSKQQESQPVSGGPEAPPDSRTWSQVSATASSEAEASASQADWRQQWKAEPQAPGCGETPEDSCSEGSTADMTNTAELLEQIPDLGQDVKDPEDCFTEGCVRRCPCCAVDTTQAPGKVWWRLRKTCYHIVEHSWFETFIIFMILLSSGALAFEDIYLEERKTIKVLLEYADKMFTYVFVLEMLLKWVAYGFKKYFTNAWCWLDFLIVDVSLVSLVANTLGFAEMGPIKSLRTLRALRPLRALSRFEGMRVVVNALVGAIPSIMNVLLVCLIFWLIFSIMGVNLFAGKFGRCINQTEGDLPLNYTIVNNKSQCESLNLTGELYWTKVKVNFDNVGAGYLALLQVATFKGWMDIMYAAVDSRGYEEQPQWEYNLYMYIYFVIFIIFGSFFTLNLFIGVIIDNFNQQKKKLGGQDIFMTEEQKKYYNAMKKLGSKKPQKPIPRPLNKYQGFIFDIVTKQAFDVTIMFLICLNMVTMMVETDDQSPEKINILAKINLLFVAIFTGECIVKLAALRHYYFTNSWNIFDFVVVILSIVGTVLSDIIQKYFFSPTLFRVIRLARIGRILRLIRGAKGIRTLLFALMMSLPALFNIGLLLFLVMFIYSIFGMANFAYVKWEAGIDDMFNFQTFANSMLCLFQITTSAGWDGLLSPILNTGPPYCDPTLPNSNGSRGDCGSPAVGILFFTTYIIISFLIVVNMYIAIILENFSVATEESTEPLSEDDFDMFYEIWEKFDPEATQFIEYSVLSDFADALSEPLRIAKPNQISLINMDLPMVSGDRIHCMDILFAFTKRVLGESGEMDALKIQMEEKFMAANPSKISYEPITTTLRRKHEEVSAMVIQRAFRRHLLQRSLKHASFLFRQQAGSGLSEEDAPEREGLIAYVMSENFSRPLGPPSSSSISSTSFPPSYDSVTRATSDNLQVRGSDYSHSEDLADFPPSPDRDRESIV
# Assay: Nav 1.5 In Vitro PX Assay: 293 cells stably transfected with human Nav 1.5 were recorded in whole cell voltage clamp mode with the PatchXpress automated electrophysiology system according the manufacturer's specifications (Molecular Devices, LLC, Sunnyvale, Calif.). Cells were held at a holding potential of −50 mV to inactivate sodium channels. To elicit sodium currents the voltage was changed to …
# Description: Nav 1.5 In Vitro PX Assay: 293 cells stably transfected with human Nav 1.5 were recorded in whole cell voltage clamp mode with the PatchXpress automated electrophysiology system according the manufacturer's specifications (Molecular Devices, LLC, Sunnyvale, Calif.). Cells were held at a holding potential of −50 mV to inactivate sodium channels. To elicit sodium currents the voltage was changed to −120 mV to recover a portion of the channels, followed by delivery of test pulses of 20 msec duration to 0 mV, at 0.1 Hz. A single concentration of test compound was applied to cells for a duration of 5 minutes. Peak sodium current was measured at the end of the compound addition period to determine percent inhibition. A minimum of two cells were tested per concentration.
row,Structure (SMILES),IC50 [nM]
1,Cc1cc(C(=O)NS(=O)(=O)C2CCC2)c(F)cc1-c1cnc(OC2CCC2)c(Cl)c1,> 4900
